Source: PMC5156471, “Complementary pharmacological and toxicological characterization data on the pharmacological profile of N-(2,6-dichlorophenyl)-2-(4-methyl-1-piperidinyl) acetamide” (Data in Brief, 2016)
Like-named read-outs stand apart in the source and are kept apart here.

Tests used:
[1] = system: bone marrow polychromatic erythrocytes; type: in vivo, mice
Method: This test was carried out following standard protocols, [5]. […] Animals were sacrificed 24 h later and the bone marrow from both femurs was flushed out using 2 mL of saline and centrifuged for 5 min at 3000 rpm. The supernatant was discarded, and the pellet was re-suspended in 0.3 mL of saline. Of this smears were made on glass slides. The slides were fixed with methanol and stained with 10% Wright–Giemsa stain. Cells were blindly scored using a light microscope at 100 X magnification. For the analysis of micronucleated cells, 1000 polychromatic erythrocytes (PCE) per animal were scored. In order to assess the cytotoxic effects of compounds, the ratio of PCE to normochromatic erythrocytes (NCE) was determined in 1000 erythrocytes, [5]. The results are presented as the mean number of micronucleated polychromatic erythrocytes (MNPCE) or the ratio PCE:NCE in individual mice (two smears per animal)±SEM for five animals per group (Table 3).

[2] = system: brine shrimp larvae (Artemia salina L.); experiment: Artemia saline lethality test; type: in vivo
[3] = system: ICR male mice; experiment: Acute toxicity in mice by the Lorke method; settings: for Dead mice: i.p., dead/treated, observed 14 days
Method: (§1) Experiments were performed on ICR male mice by the Lorke method. Doses were selected according this method. In both phases, mice were observed daily for 14 days for mortality, toxic effects and behavioral changes. Restlessness, respiratory distress, seizures, diarrhea, motor activity, posture and reflexes were qualitatively determined. Body weight was also monitored. The internal organs (including the stomach, heart, lung, liver, and kidneys) were removed at the end of experiment and visually examined for lesions.

[4] = Acute toxicity in mice by the Lorke method; settings: male, ICR, mouse, in vivo, ip
Method: as §1

[5] = system: normotensive rats; experiment: Cardiovascular response in normotensive conscious rats (tail cuff method); type: in vivo; settings: 50 and 80 mg/kg, p.o.
Method: The hypotensive activity was determined using a standard protocol of Avila-Villarreal et al.. This study was conducted in normotensive rats. […] Systolic and diastolic blood pressure as well as heart rate were recorded before and after treatment at 0, 1, 3, 5 and 7 h by the tail cuff method using a Panlab non-invasive blood pressure system for rodents and dogs (Harvard Apparatus). Percent of reduction in heart rate (HR), systolic blood pressure (SBP) or diastolic blood pressure (DBP) were calculated using diltiazem as control (Fig. 2).

[6] = mice, i.p. (LIA, lidocaine 100 mg/kg; cyclophosphamide 40 mg/kg), 24 h, mean±SEM, five animals

Row | Compound | MNPCE per 1000 PCE [1, 6] | PCE:NCE [1, 6] | MNPCE per 1000 PCE ([1]; male, ICR, mouse, in vivo) | PCE:NCE ([1]; male, ICR, mouse, in vivo) | Genotoxicity in mice (in words) ([1]; mouse, in vivo) | LC50 ([2]; Artemia saline L., 24 h, 100-1000 ppm in triplicate) [ppm] | Toxicity in Brine Ship (in words) ([2]; in vivo) | Dead mice ([3]; Phase I, 10 mg/kg) | Dead mice ([3]; Phase I, 100 mg/kg) | Dead mice ([3]; Phase I, 1000 mg/kg) | Dead mice ([3]; Phase II, 140 mg/kg) | Dead mice ([3]; Phase II, 225 mg/kg) | Dead mice ([3]; Phase II, 370 mg/kg) | Dead mice ([3]; Phase II, 600 mg/kg) | Macroscopic damage of internal organs (stomach, heart, lung, liver, kidneys) ([3]; mice, visual examination at the end of experiment (14 days)) | Toxicity in mice (in words) ([3]; mouse, in vivo) | LD50 at 14 days [4] [mg/kg] | Cardiovascular responses (heart rate, systolic and diastolic blood pressure; in words) [5]
1 | O=P1(N(CCCl)CCCl)NCCCO1 (stereo not drawn) [Cyclophosphamide, reference compound] | 82.6±1.8 | 14±0.3 |  |  |  |  |  |  |  |  |  |  |  |  |  |  |  | 
2 | CC1CCN(CC(=O)Nc2c(Cl)cccc2Cl)CC1 [LIA, N-(2,6-dichlorophenyl)-2-(4-methyl-1-piperidinyl)acetamide] |  |  | 5.8±1.9 ^⁎^, ^# | 20.7±1.6 | not genotoxic | 335.1 ±85.7 | not toxic | 0/3 | 0/3 | 3/3 | 0/3 | 0/3 | 0/3 | 3/3 | Neither LIA nor lidocaine produced visible macroscopically damage | not toxic | 800 | does not modify cardiovascular responses
